The numbers were not newly measured in patent US20100210643A1, “sGC STIMULATORS, sGC ACTIVATORS AND COMBINATIONS FOR THE TREATMENT OF UROLOGICAL DISORDERS” (BAYER SCHERING PHARMA AKTIENGESELLSCHAFT, priority 2007, published 2010), which cites them from elsewhere.

In series [1] the test system is pre-contracted human prostate tissue. Particulars: in vitro; literature (Uckert 2001).
Series [2] relates to bladder of female Guinea Pigs. Particulars: literature (Gillespie 2004).

In the case of `CCCOc1ccccc1-c1nc2nn[nH]c2c(=O)[nH]1` [Zaprinast], in series [1], the “relaxation of pre-contracted human prostate tissue” value was “able to relax”. For the same compound, the relaxation of bladder result in series [2] is reported as “ineffective”.
`CC(C)Cn1c(=O)n(C)c(=O)c2[nH]cnc21` [IBMX]: in series [2], the relaxation of bladder entry is on record as “could relax”.
